Our source for the TGI values is PubChem BioAssay (NCI).

Some test systems named below: HCT-116 colon; SK-MEL-5 melanoma; EKVX NSCLC; MDA-MB-231 breast; ACHN renal; RPMI-8226 leukemia; MCF7 breast; NCI-H23 lung; MALME-3M melanoma; OVCAR-4 ovarian; IGROV1 ovarian; PC-3 prostate; UACC-257 melanoma; TK-10 renal; HCT-15 colon; UACC-62 melanoma; SF-295 CNS; SK-MEL-2 melanoma.
Holding throughout (experiment): growth of human tumour cells (NCI), 48 h

Each structure is given as a SMILES string.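 Cells were grown in 96-well plates and exposed to each compound for 48 hours at five concentrations; endpoints were interpolated linearly between bracketing concentrations, or set to the highest concentration if not reached. The concentration for full growth arrest is given as TGI.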

For `CC(C)(C)OC(=O)N(O)[C@@H]1C=C[C@H](n2cnc3c(N)ncnc32)C1`, the TGI in the test on HCT-116 colon, in the test on SK-MEL-5 melanoma, in the test on EKVX NSCLC, with MDA-MB-231 breast, in the test with ACHN renal and in the test with RPMI-8226 leukemia was over 100 µM throughout. Moreover, the TGI in the test with MCF7 breast, in the test on NCI-H23 lung, in the test on MALME-3M melanoma, in the test with OVCAR-4 ovarian, in the test on IGROV1 ovarian and with PC-3 prostate was over 100 µM each time. Further, the TGI with UACC-257 melanoma, with TK-10 renal, in the test with HCT-15 colon, with UACC-62 melanoma, in the test with SF-295 CNS and in the test with SK-MEL-2 melanoma was over 100 µM throughout.

On to `O=C(/C=C(\O)c1ccc(Cl)cc1)C(=O)N=Nc1c(O)[nH]c2ccc(Br)cc12`, for which the TGI is over 100 µM in the test with HCT-116 colon; over 100 µM with SK-MEL-5 melanoma; over 100 µM in the test with EKVX NSCLC; over 100 µM in the test on MDA-MB-231 breast; over 100 µM in the test with ACHN renal; 92.3 µM in the test with RPMI-8226 leukemia. In addition, the TGI in the test on MCF7 breast, in the test on NCI-H23 lung, in the test with MALME-3M melanoma, with OVCAR-4 ovarian, with IGROV1 ovarian and in the test on PC-3 prostate was over 100 µM in each case. The TGI is over 100 µM in the test on UACC-257 melanoma; over 100 µM in the test with TK-10 renal; over 100 µM in the test on HCT-15 colon; over 100 µM with UACC-62 melanoma; over 100 µM in the test on SF-295 CNS; 41.2 µM in the test on SK-MEL-2 melanoma.

Turning to `Cc1ccc([N+](=O)[O-])c2c(NCCNC(=O)Cn3ccnc3[N+](=O)[O-])ccnc12`, the TGI with HCT-116 colon, with SK-MEL-5 melanoma, with EKVX NSCLC, with MDA-MB-231 breast, in the test on ACHN renal and with RPMI-8226 leukemia was over 100 µM in each case. For the same compound, the TGI was 44.2 µM in the test on MCF7 breast; over 100 µM in the test with NCI-H23 lung; 89.1 µM in the test with MALME-3M melanoma; over 100 µM in the test with OVCAR-4 ovarian; 86.6 µM in the test on IGROV1 ovarian; over 100 µM in the test with PC-3 prostate. In addition, the TGI in the test on UACC-257 melanoma is 87.7 µM; in the test with TK-10 renal, over 100 µM; with HCT-15 colon, over 100 µM; in the test with UACC-62 melanoma, over 100 µM; in the test on SF-295 CNS, 43.3 µM; in the test on SK-MEL-2 melanoma, over 100 µM.

Regarding `CC1CN=C(Nc2ccc(F)cc2F)S1` (configuration not stated), the TGI in the test on HCT-116 colon, in the test with SK-MEL-5 melanoma, with EKVX NSCLC, with MDA-MB-231 breast, in the test with ACHN renal and in the test with RPMI-8226 leukemia was over 100 µM in each case. In addition, the TGI in the test with MCF7 breast, with NCI-H23 lung, with MALME-3M melanoma, with OVCAR-4 ovarian, with IGROV1 ovarian and in the test on PC-3 prostate was over 100 µM in each case. In addition, the TGI with UACC-257 melanoma, with TK-10 renal, with HCT-15 colon, with SF-295 CNS and with SK-MEL-2 melanoma was over 100 µM in each case.

On to `COC(=O)/C=C/c1ccc2c(c1)CCC2`, for which the TGI in the test with HCT-116 colon was 98 µM; in the test on SK-MEL-5 melanoma, over 100 µM; with EKVX NSCLC, over 100 µM; in the test with MDA-MB-231 breast, over 100 µM; in the test on ACHN renal it was over 100 µM; with RPMI-8226 leukemia, over 100 µM. Besides, the TGI in the test with MCF7 breast, with NCI-H23 lung, in the test with MALME-3M melanoma, in the test with OVCAR-4 ovarian, in the test with IGROV1 ovarian and in the test on PC-3 prostate was over 100 µM in each case. Besides, the TGI in the test on UACC-257 melanoma, in the test on TK-10 renal, with HCT-15 colon, in the test with SF-295 CNS and in the test with SK-MEL-2 melanoma was over 100 µM in each case.

For the compound `COc1cc(/C=C2\C[C@H]3[C@@H]4CC=C5C[C@@H](O)CC[C@]5(C)[C@H]4CC[C@]3(C)[C@H]2O)cc(OC)c1OC`, the TGI was 24.4 µM with HCT-116 colon; 21.5 µM in the test with SK-MEL-5 melanoma; over 100 µM with EKVX NSCLC; 41.7 µM in the test with MDA-MB-231 breast; over 100 µM with ACHN renal; over 100 µM in the test on RPMI-8226 leukemia. In addition, the TGI was over 100 µM in the test on MCF7 breast; 58.2 µM in the test with NCI-H23 lung; over 100 µM in the test with MALME-3M melanoma; 46.2 µM with OVCAR-4 ovarian; over 100 µM in the test on IGROV1 ovarian; 92.6 µM in the test with PC-3 prostate. For the same compound, the TGI in the test with UACC-257 melanoma was 83.1 µM; in the test with TK-10 renal, over 100 µM; in the test on HCT-15 colon, over 100 µM; with UACC-62 melanoma, 39.3 µM; in the test on SF-295 CNS it was 22.4 µM; in the test on SK-MEL-2 melanoma, 32.5 µM.

Take `CCOC(=O)c1cc2c(ccc3cc(C(=O)OCC)[nH]c32)[nH]1`: the TGI was over 100 µM with HCT-116 colon; 98.4 µM in the test on SK-MEL-5 melanoma; over 100 µM with EKVX NSCLC; 28.7 µM in the test with MDA-MB-231 breast; over 100 µM in the test with ACHN renal; over 100 µM with RPMI-8226 leukemia. Also, the TGI was over 100 µM in the test on MCF7 breast; over 100 µM in the test on NCI-H23 lung; over 100 µM in the test with MALME-3M melanoma; 32.4 µM with OVCAR-4 ovarian; over 100 µM with IGROV1 ovarian; over 100 µM in the test with PC-3 prostate. The TGI in the test with UACC-257 melanoma, with TK-10 renal, in the test with HCT-15 colon, in the test with UACC-62 melanoma, with SF-295 CNS and with SK-MEL-2 melanoma was over 100 µM throughout.

As to `O=c1cc(-c2ccccc2)[nH]c2cc(F)c(F)cc12`, the TGI in the test with HCT-116 colon is over 100 µM; with SK-MEL-5 melanoma, 18.7 µM; with EKVX NSCLC, over 100 µM; in the test with MDA-MB-231 breast, over 77.2 µM; in the test on ACHN renal, over 35.5 µM; in the test with RPMI-8226 leukemia, over 100 µM. For the same compound, the TGI in the test with MCF7 breast is over 71.9 µM; in the test with NCI-H23 lung it was 22.9 µM; in the test on MALME-3M melanoma, over 100 µM; in the test with OVCAR-4 ovarian it was over 100 µM; in the test on IGROV1 ovarian, over 54.1 µM; in the test with PC-3 prostate, over 100 µM. In addition, the TGI was over 100 µM in the test with UACC-257 melanoma; over 100 µM in the test on TK-10 renal; over 100 µM in the test on HCT-15 colon; over 50.1 µM in the test with UACC-62 melanoma; over 100 µM with SF-295 CNS; over 75.1 µM with SK-MEL-2 melanoma.
